Drawing on patent publication US20150225377A1, “VEGFR3 INHIBITORS” (CANCER THERAPEUTICS CRC PTY LIMITED, priority 2012, published 2015), this text covers IC50 for 21 compounds.

This test deals with T1, VEGFR3 cytoplasmic domain (Homo sapiens, UniProt P35916).
T1 construct: VEGFR3 cytoplasmic domain (amino acids 798-1298) was purchased as N-terminal GST-fusion protein; GST (N); purchased
The experiment in a line: VEGFR3 biochemical assay (AlphaScreen). Particulars: GST-VEGFR3 cytoplasmic domain, 500 μM ATP (modified form: His-fusion, 1 μM ATP). On the procedure:
Compounds of the invention may be tested for in vitro activity in the following assay: A biotin labelled peptide is used as substrate (amino acid sequence: Biotin-[…]NH2). VEGFR3 cytoplasmic domain (amino acids 798-1298) was purchased as N-terminal GST-fusion protein (“the enzyme”). The 15 μL assay reactions are run in Greiner brand white 384-well low volume plates. All reactions contained 10 mM HEPES pH 7.4, 10 mM MgCl2, 0.01% (v/v) Tween-20, 50 μM Na3VO4, 0.01% (w/v) albumin from chicken egg white, 1 mM Dithiothreitol, 111 nM peptide substrate, 500 μM ATP, and 3.8 ng/reaction enzyme, with the enzyme being omitted from negative control reactions. Compounds were added in a volume of […] from dilution series prepared in DMSO, positive and negative control reactions receiving the same volume DMSO without compound. The plates were sealed with adhesive seals and incubated for 90 minutes at 30 degree Celsius. The reactions were stopped with the detection reagents added at the same time as follows: Product formation was quantified as amplified luminescence between PerkinElmer AlphaScreen™ beads, using Streptavidin-coated donor and anti-phosphotyrosine (P-Tyr-100) acceptor beads. To each reaction, 5 μL containing 10 mM HEPES pH 7.4, 25 mM NaCl, 100 mM EDTA, 0.01% (v/v) Tween-20, and 6.25 μg/mL of each bead type were added. Plates were incubated for 6 hours before being read on a PerkinElmer EnVision™ plate reader in HTS Alphascreen™ mode. IC50 values were obtained by calculating percent inhibition (% I) for each reaction relative to controls on the same plate (% I=(I-CN)/(CP-CN) where CN/CP are the averages of the negative/positive reactions, respectively), then fitting the % I data vs. compound concentration [I] to % I=(A+((B−A)/(1+((C/[I])̂D)))) where A is the lower asymptote, B is the upper asymptote, C is the IC50 value, and D is the slope factor.
The above assay was also run in a modified form in some cases (indicated below with *). In these cases, VEGFR3 cytoplasmic domain (amino acids 818-1177, lacking 949-1002 of UniProt accession number P35916) was expressed and purified as N-terminal Hexa-His-fusion protein (“the enzyme”), rather than using the N-terminal GST-fusion protein. The assay conditions were the same as above but with 1 μM ATP and 8 ng/reaction of the enzyme.

T1 sequence (P35916 798-1298 isoform P35916-1): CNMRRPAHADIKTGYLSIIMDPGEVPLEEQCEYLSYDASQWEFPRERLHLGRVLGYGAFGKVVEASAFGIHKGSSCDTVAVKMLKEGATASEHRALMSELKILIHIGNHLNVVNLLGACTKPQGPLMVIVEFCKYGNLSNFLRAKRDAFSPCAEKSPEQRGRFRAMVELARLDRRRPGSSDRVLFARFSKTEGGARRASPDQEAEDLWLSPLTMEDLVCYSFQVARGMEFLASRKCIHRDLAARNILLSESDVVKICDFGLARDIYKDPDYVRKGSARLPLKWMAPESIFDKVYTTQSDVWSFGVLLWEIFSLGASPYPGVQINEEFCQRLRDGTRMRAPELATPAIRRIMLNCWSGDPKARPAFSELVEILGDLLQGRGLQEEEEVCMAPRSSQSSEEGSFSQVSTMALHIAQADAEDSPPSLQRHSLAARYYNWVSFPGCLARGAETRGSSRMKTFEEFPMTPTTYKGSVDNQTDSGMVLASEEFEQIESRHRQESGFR

As for `NC(=O)Cc1ccccc1CCc1ccnc(Nc2ccc(N3CCNCC3)cc2)n1` [Compound 1, 2-(2-(2-(2-((4-(piperazin-1-yl)phenyl)amino)pyrimidin-4-yl)ethyl)phenyl)acetamide], the IC50 is 161 nM.
The figure for `NC(=O)Cc1ccccc1CCc1nc(Nc2ccc(C3CCNCC3)c(F)c2)ncc1C(F)(F)F` [Compound 7, 2-(2-(2-(2-((3-Fluoro-4-(piperidin-4-yl)phenyl)amino)-5-(trifluoromethyl)pyrimidin-4-yl)ethyl)phenyl)acetamide] is 40 nM; for `CN1CCC(c2ccc(Nc3ncc(C(F)(F)F)c(CCc4ccccc4CC(N)=O)n3)cc2F)CC1` [Compound 8, 2-(2-(2-(2-((3-fluoro-4-(1-methylpiperidin-4-yl)phenyl)amino)-5-(trifluoromethyl)pyrimidin-4-yl)ethyl)phenyl)acetamide] it is 34 nM.
`CN1CCC(c2ccc(Nc3ncc(C(F)(F)F)c(CCc4ccc(F)cc4CC(N)=O)n3)cc2)CC1` [Compound 10, 2-(5-fluoro-2-(2-(2-((4-(1-methylpiperidin-4-yl)phenyl)amino)-5-(trifluoromethyl)pyrimidin-4-yl)ethyl)phenyl)acetamide] yielded an IC50 of 76 nM.
In the case of `CN1CCC(c2ccc(Nc3ncc(C(F)(F)F)c(CCc4ccccc4CC(N)=O)n3)cn2)CC1` [Compound 14, 2-(2-(2-(2-((6-(1-methylpiperidin-4-yl)pyridin-3-yl)amino)-5-(trifluoromethyl)pyrimidin-4-yl)ethyl)phenyl)acetamide], the IC50 came to 81 nM.
The figure for `NC(=O)Cc1ccc(F)cc1CCc1nc(Nc2ccc(C3CCNCC3)cc2)ncc1C(F)(F)F` [Compound 15, 2-(4-fluoro-2-(2-(2-((4-(piperidin-4-yl)phenyl)amino)-5-(trifluoromethyl)pyrimidin-4-yl)ethyl)phenyl)acetamide] is 31 nM.
Next, `CN1CCC(c2ccc(Nc3ncc(C(F)(F)F)c(CCc4cc(C(F)(F)F)ccc4CC(N)=O)n3)cc2)CC1` [Compound 17, 2-(2-(2-(2-((4-(1-methylpiperidin-4-yl)phenyl)amino)-5-(trifluoromethyl)pyrimidin-4-yl)ethyl)-4-(trifluoromethyl)phenyl)acetamide]: 67 nM; `NC(=O)Cc1ccccc1CCc1nc(Nc2ccc(C3CNC3)cc2)ncc1C(F)(F)F` [Compound 20, 2-(2-(2-(2-((4-(azetidin-3-yl)phenyl)amino)-5-(trifluoromethyl)pyrimidin-4-yl)ethyl)phenyl)acetamide]: 37 nM; `COc1cnc(Nc2ccc(C3CCNCC3)cc2)nc1CCc1ccccc1CC(N)=O` [Compound 23, 2-(2-(2-(5-methoxy-2-((4-(piperidin-4-yl)phenyl)amino)pyrimidin-4-yl)ethyl)phenyl)acetamide]: 72 nM.
With `NC(=O)Cc1cc(C(F)(F)F)ccc1CCc1nc(Nc2ccc(C3CCNCC3)cc2)ncc1C(F)(F)F` [Compound 25, 2-(2-(2-(2-((4-(piperidin-4-yl)phenyl)amino)-5-(trifluoromethyl)pyrimidin-4-yl)ethyl)-5-(trifluoromethyl)phenyl)acetamide], the IC50 turned out to be 278 nM. Compared with the last compound, the IC50 is about 3.9-fold higher.
Turning to `Cc1cnc(Nc2ccc(CN)cc2)nc1CCc1ccccc1CC(N)=O` [Compound 27, 2-(2-(2-(2-((4-(aminomethyl)phenyl)amino)-5-methylpyrimidin-4-yl)ethyl)phenyl)acetamide], 118 nM corresponded to half-maximal inhibition (IC50).
`COC(=O)NC1(c2ccc(Nc3ncc(C)c(CCc4ccccc4CC(N)=O)n3)cc2)CCC1` [Compound 29, methyl 1-(4-(4-(2-(2-amino-2-oxoethyl)phenethyl)-5-methylpyrimidin-2-ylamino)phenyl)cyclobutylcarbamate] returned an IC50 of 17 nM.
The compound `Cc1cnc(Nc2cnn(C3CNC3)c2)nc1CCc1ccccc1CC(N)=O` [Compound 30, 2-(2-(2-(2-((1-(azetidin-3-yl)-^1H-pyrazol-4-yl)amino)-5-methylpyrimidin-4-yl)ethyl)phenyl)acetamide] came in with a 50% inhibitory concentration (IC50) of 9 nM.
`Cc1cnc(Nc2ccc(C3CNC3)cc2)nc1CCc1ccccc1CC(N)=O` [Compound 32, 2-(2-(2-(2-((4-(azetidin-3-yl)phenyl)amino)-5-methylpyrimidin-4-yl)ethyl)phenyl)acetamide] returned an IC50 of 52 nM.
The compound `Cc1cnc(Nc2ccc(C(C)N)cc2)nc1CCc1ccccc1CC(N)=O` (stereo not drawn) [Compound 34, 2-(2-(2-(2-((4-(1-aminoethyl)phenyl)amino)-5-methylpyrimidin-4-yl)ethyl)phenyl)acetamide] displayed an IC50 of 71 nM. This IC50 and that of the compound before are within 1.5-fold of each other.
The figure for `NC(=O)Cc1ccccc1CCc1nc(Nc2cnn(C3CCNCC3)c2)ncc1C(F)(F)F` [Compound 35, 2-(2-(2-(2-((1-(piperidin-4-yl)-^1H-pyrazol-4-yl)amino)-5-(trifluoromethyl)pyrimidin-4-yl)ethyl)phenyl)acetamide] is 23 nM; for `CN1CCC(n2cc(Nc3ncc(C(F)(F)F)c(CCc4ccccc4CC(N)=O)n3)cn2)CC1` [Compound 36, 2-(2-(2-(2-((1-(1-methylpiperidin-4-yl)-^1H-pyrazol-4-yl)amino)-5-(trifluoromethyl)pyrimidin-4-yl)ethyl)phenyl)acetamide] it is 50 nM; for `CC(N)c1cccc(Nc2ncc(Cl)c(CCc3ccccc3CC(N)=O)n2)c1` (stereo not drawn) [Compound 38, 2-(2-(2-(2-((3-(1-aminoethyl)phenyl)amino)-5-chloropyrimidin-4-yl)ethyl)phenyl)acetamide] it is 76 nM.
Compound `CC(=O)NC(C)c1cccc(Nc2ncc(Cl)c(CCc3ccccc3CC(N)=O)n2)c1` (stereo not drawn) [Compound 39, 2-(2-(2-(2-((3-(1-acetamidoethyl)phenyl)amino)-5-chloropyrimidin-4-yl)ethyl)phenyl)acetamide] yielded an IC50 of 10 nM.
Next, `CC(N)c1ccc(Nc2ncc(C(F)(F)F)c(CCc3ccccc3CC(N)=O)n2)cn1` (stereo not drawn) [Compound 40, 2-(2-(2-(2-((6-(1-Aminoethyl)pyridin-3-yl)amino)-5-(trifluoromethyl)pyrimidin-4-yl)ethyl)phenyl)acetamide]: 187 nM.
The figure for `NC(=O)Cc1cccc(F)c1CCc1nc(Nc2ccc(C3CCNCC3)cc2)ncc1C(F)(F)F` [Compound 41] is 26 nM.
